Measured values reported in patent US5763430A, “Method of treating a viral infection by administering a steroid compound” (priority 1995, dated 1998).
In brackets after ≈: the same amount, converted by molar mass.

How the values were obtained:
[1] = test system: stage 59-60 Xenopus tadpole; experiment: Xenopus tadpole assay; settings: in vivo
E. coli = experiment: antibiotic activity (MIC); type: cell-based; settings: Escherichia coli; E. coli; read-out: MIC
Source text: (§1) Thus, it is possible to achieve an antimicrobial steroid with or without squalamine-like pharmacological activity.

S. aureus = experiment: antibiotic activity (MIC); type: cell-based; settings: Staphylococcus aureus; S. aureus; read-out: MIC
Source text: as §1

C. albicans = experiment: antibiotic activity (MIC); type: cell-based; settings: Candida albicans; C. albicans; read-out: MIC
Source text: as §1

P. aerug = experiment: antibiotic activity (MIC); type: cell-based; settings: P. aerug; read-out: MIC
Source text: as §1

[2] = test system: human microvascular cells; experiment: inhibition of endothelial cell cord formation in vitro; type: cell-based; settings: for minimal effective concentration: Homo sapiens, Endothelial cell, Table II, read-out: Minimum Effective Concentration, Cord Formation; on effect on endothelial cord formation: key: +: Inhibition of angiogenesis; -: No inhibition of angiogenesis; Toxic; *: cell rounding @ 10 µg/ml
Source text: Endothelial cells have the capacity in vitro to form tubular aggregates resembling capillaries in various early stages of formation. This conversion occurs under relatively specific conditions, in which essential growth factors along with an effective substratum are provided. It has been shown that both the interaction of growth factors with the endothelial cell and its attachment to a substratum activate the NHE. The activation of this exchanger is believed to be required for subsequent morphologic transformation of the endothelial cell into a multicellular tubular structure.
To assess the effect of compounds on the cord-like structures formed by human microvascular cells when plated in the presence of VEGF (Vascular Endothelial Growth Factor) and basic fibroblast growth factor on a collagen matrix, a standard cord formation assay was used.

SMILES | similarity of pharmacologic activity in tadpole assay [1] | MIC (E. coli) | MIC (S. aureus) | MIC (C. albicans) | MIC (P. aerug) | effect on endothelial cord formation ([2]; 0.1 μg/ml) | effect on endothelial cord formation ([2]; 1.0 μg/ml) | effect on endothelial cord formation ([2]; 10.0 μg/ml) | minimal effective concentration [2]
CC(C)CCC[C@@H](C)[C@H]1CC[C@H]2[C@@H]3[C@H](O)C[C@H]4C[C@H](NCCCNCCCCN)CC[C@]4(C)[C@H]3CC[C@]12C [Compound 370] | pharmacologic activity similar to that seen for FX 3 | 32 µg/mL (≈ 60.2 µM) | 4 µg/mL (≈ 7.52 µM) | 2 µg/mL (≈ 3.76 µM) | 64 µg/mL (≈ 120 µM) |  |  |  | 
CC(C)CCC[C@@H](C)[C@H]1CC[C@H]2[C@@H]3[C@H](O)C[C@H]4C[C@@H](NCCCNCCCCN)CC[C@]4(C)[C@H]3CC[C@]12C [Compound 371] | effects like those produced by compound 1436 | 64 µg/mL (≈ 120 µM) | 4 µg/mL (≈ 7.52 µM) | 2 µg/mL (≈ 3.76 µM) | 64 µg/mL (≈ 120 µM) |  |  |  | 
C[C@H](CCC(=O)O)[C@H]1CC[C@H]2[C@@H]3[C@H](O)C[C@H]4C[C@@H](NCCCNCCCCNCCCN)CC[C@]4(C)[C@H]3CC[C@]12C [Compound 397] |  | 32 to 64 µg/mL (≈ 55.5 to 111 µM) | 16 µg/mL (≈ 27.7 µM) | 32 µg/mL (≈ 55.5 µM) | 16 µg/mL (≈ 27.7 µM) |  |  |  | 
COC(=O)CC[C@@H](C)[C@H]1CC[C@H]2[C@@H]3[C@H](O)C[C@@H]4C[C@@H](NCCN)CC[C@]4(C)[C@H]3CC[C@]12C [Compound 409] | functionally similar to compound 1437 | 64 µg/mL (≈ 143 µM) | 32 µg/mL (≈ 71.3 µM) | 16 µg/mL (≈ 35.7 µM) | 128 µg/mL (≈ 285 µM) |  |  |  | 
COC(=O)CC[C@@H](C)[C@H]1CC[C@H]2[C@@H]3[C@H](O)C[C@@H]4C[C@H](NCCN)CC[C@]4(C)[C@H]3CC[C@]12C [Compound 410] | functionally similar to compound 1437 | 16 µg/mL (≈ 35.7 µM) | 16 µg/mL (≈ 35.7 µM) | 16 µg/mL (≈ 35.7 µM) | 32 µg/mL (≈ 71.3 µM) | - | + | + | 10 µg/mL
COC(=O)CC[C@@H](C)[C@H]1CC[C@H]2[C@@H]3[C@H](O)C[C@@H]4C[C@@H](NCCCNCCCCNCCCN)CC[C@]4(C)[C@H]3CC[C@]12C [Compound 411] |  | 64 µg/mL (≈ 108 µM) | 8 µg/mL (≈ 13.5 µM) | 2 µg/mL (≈ 3.38 µM) | 64 µg/mL (≈ 108 µM) | - | - | + | 10 µg/mL
C[C@H](CCC(=O)O)[C@H]1CC[C@H]2[C@@H]3[C@H](O)C[C@@H]4C[C@H](NCCCNCCCCNCCCN)CC[C@]4(C)[C@H]3CC[C@]12C [Compound 412] | pharmacologic activity similar to that seen for FX 3 | 64 µg/mL (≈ 111 µM) | 8 µg/mL (≈ 13.9 µM) | 8 µg/mL (≈ 13.9 µM) | 8 µg/mL (≈ 13.9 µM) | - | - | + | > 10 µg/mL
C[C@H](CCC(=O)O)[C@H]1CC[C@H]2[C@@H]3[C@H](O)C[C@@H]4C[C@@H](NCCCNCCCCNCCCN)CC[C@]4(C)[C@H]3CC[C@]12C [Compound 413] | effects like those produced by compound 1436 | 256 µg/mL (≈ 444 µM) | 8 µg/mL (≈ 13.9 µM) | 32 µg/mL (≈ 55.5 µM) | 64 µg/mL (≈ 111 µM) | - | - | + | > 10 µg/mL
C[C@H](CCC(=O)O)[C@H]1CC[C@H]2[C@@H]3[C@H](O)C[C@@H]4C[C@H](NCCN)CC[C@]4(C)[C@H]3CC[C@]12C [Compound 414] | potencies comparable to that of Fraction 1 | 64 µg/mL (≈ 147 µM) | 32 µg/mL (≈ 73.6 µM) | 64 µg/mL (≈ 147 µM) | 64 µg/mL (≈ 147 µM) |  |  |  | 
COC(=O)CC[C@@H](C)[C@H]1CC[C@H]2[C@@H]3CC[C@@H]4C[C@H](NCCN)CC[C@]4(C)[C@H]3C[C@H](O)[C@]12C [Compound 416] | functionally similar to compound 1437 | 8 µg/mL (≈ 17.8 µM) | 8 µg/mL (≈ 17.8 µM) | 32 µg/mL (≈ 71.3 µM) | 16 to 32 µg/mL (≈ 35.7 to 71.3 µM) |  |  |  | 
C[C@H](CCC(=O)O)[C@H]1CC[C@H]2[C@@H]3CC[C@@H]4C[C@H](NCCN)CC[C@]4(C)[C@H]3C[C@H](O)[C@]12C [Compound 417] |  | 64 µg/mL (≈ 147 µM) | 16 to 32 µg/mL (≈ 36.8 to 73.6 µM) | 32 µg/mL (≈ 73.6 µM) | 128 µg/mL (≈ 294 µM) |  |  |  | 
COC(=O)CC[C@@H](C)[C@H]1CC[C@H]2[C@@H]3C[C@@H](O)[C@H]4C[C@H](NCCN)CC[C@]4(C)[C@H]3CC[C@]12C [Compound 431] | functionally similar to compound 1437 | 32 to 64 µg/mL (≈ 71.3 to 143 µM) | 16 µg/mL (≈ 35.7 µM) | 8 µg/mL (≈ 17.8 µM) | 128 µg/mL (≈ 285 µM) |  |  |  | 
COC(=O)CC[C@@H](C)[C@H]1CC[C@H]2[C@@H]3C[C@@H](O)[C@H]4C[C@@H](NCCN)CC[C@]4(C)[C@H]3CC[C@]12C [Compound 432] | functionally similar to compound 1437 | 8 to 16 µg/mL (≈ 17.8 to 35.7 µM) | 1 µg/mL (≈ 2.23 µM) | 2 to 4 µg/mL (≈ 4.46 to 8.91 µM) | 64 µg/mL (≈ 143 µM) |  | - | - | 
